Measurements: ChEMBL document CHEMBL1909046, “DrugMatrix in vitro pharmacology data”

What was measured:
Histamine H2 receptor = Histamine H2 receptor (Homo sapiens, UniProt P25021); type: cell membranes, CHO-K1, Membrane; settings: cho-k1; also: in other assays of this panel Not Active means under 50% inhibition at 10 µM
[1] = target: Beta-2 adrenergic receptor (Homo sapiens, UniProt P07550); assay: DRUGMATRIX: Adrenergic beta2 radioligand binding (ligand: [3H] CGP-12177); type: cell membranes, CHO, Membrane; settings: cho; Not Active = under 50% inhibition at 10 µM
[2] = target: T1, Alpha-1A adrenergic receptor (Rattus norvegicus, UniProt P43140); assay: DRUGMATRIX: Alpha-1A adrenergic receptor radioligand binding (ligand: prazosin); type: cell membranes, Wistar, Submaxillary gland, Membrane; settings: Not Active = under 50% inhibition at 10 µM
T1 sequence (P43140 whole entry): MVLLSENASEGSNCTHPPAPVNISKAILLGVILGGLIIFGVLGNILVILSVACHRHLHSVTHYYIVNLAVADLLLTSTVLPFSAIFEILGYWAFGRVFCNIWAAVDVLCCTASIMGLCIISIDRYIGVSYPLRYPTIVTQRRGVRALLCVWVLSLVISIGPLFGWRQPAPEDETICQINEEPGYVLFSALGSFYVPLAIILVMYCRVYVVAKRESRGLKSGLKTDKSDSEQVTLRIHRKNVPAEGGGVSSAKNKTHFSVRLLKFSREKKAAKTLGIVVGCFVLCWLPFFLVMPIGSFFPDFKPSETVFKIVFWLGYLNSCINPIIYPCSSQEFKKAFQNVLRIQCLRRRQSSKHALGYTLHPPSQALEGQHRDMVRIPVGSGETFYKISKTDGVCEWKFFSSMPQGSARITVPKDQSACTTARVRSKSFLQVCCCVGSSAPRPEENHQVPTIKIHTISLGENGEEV

[3] = target: T2, Receptor-type tyrosine-protein phosphatase C (Homo sapiens, UniProt P08575); design: species or system Escherichia coli;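 also: inhibition of CD45 enzyme activity measured using DiFMUP as substrate; in other assays of this panel Not Active means under 50% inhibition at 10 µM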
T2 sequence (P08575 whole entry): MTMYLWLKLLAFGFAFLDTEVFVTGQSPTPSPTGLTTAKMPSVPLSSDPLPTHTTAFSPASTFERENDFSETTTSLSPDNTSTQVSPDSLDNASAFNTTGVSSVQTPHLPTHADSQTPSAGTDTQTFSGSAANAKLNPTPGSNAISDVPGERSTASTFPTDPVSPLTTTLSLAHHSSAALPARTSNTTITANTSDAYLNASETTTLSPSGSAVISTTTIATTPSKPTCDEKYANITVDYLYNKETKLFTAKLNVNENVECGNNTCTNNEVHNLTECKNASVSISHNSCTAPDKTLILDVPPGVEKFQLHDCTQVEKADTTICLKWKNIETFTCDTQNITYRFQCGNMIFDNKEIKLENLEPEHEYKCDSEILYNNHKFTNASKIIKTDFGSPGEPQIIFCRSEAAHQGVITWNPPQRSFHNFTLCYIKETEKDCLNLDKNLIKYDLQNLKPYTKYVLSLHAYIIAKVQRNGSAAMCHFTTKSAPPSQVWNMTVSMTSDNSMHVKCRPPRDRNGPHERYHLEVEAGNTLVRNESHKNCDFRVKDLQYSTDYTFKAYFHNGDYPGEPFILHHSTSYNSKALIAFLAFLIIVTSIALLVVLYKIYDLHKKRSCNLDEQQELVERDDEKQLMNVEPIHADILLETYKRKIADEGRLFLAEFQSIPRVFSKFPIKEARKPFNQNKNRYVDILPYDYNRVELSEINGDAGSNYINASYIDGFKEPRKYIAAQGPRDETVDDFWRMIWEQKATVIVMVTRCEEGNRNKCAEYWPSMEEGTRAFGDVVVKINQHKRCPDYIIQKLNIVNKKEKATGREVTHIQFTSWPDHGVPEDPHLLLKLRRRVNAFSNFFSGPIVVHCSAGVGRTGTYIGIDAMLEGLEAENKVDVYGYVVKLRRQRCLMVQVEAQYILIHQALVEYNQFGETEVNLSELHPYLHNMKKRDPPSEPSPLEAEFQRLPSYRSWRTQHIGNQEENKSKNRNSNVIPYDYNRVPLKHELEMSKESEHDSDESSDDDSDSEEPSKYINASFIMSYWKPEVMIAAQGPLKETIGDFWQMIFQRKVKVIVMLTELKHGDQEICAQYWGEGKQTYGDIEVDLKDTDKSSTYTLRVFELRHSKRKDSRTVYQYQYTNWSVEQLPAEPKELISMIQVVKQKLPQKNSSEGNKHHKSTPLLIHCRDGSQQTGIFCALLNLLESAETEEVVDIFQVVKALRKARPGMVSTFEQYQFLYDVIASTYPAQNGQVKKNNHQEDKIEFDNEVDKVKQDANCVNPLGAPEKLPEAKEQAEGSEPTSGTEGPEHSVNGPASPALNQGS

Measured: IC50

Sequence of Beta-2 adrenergic receptor (P07550 whole entry): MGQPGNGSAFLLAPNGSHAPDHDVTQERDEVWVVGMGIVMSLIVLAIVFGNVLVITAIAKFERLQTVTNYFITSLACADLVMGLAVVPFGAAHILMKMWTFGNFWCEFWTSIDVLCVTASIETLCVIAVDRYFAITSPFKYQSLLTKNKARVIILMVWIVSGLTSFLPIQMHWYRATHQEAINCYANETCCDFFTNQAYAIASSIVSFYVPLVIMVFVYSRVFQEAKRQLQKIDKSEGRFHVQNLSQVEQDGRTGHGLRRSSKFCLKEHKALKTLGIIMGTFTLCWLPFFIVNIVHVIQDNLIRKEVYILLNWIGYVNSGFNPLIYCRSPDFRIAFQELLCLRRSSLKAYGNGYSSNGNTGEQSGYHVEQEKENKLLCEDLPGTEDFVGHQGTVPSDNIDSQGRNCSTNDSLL
Sequence of Histamine H2 receptor (P25021 whole entry): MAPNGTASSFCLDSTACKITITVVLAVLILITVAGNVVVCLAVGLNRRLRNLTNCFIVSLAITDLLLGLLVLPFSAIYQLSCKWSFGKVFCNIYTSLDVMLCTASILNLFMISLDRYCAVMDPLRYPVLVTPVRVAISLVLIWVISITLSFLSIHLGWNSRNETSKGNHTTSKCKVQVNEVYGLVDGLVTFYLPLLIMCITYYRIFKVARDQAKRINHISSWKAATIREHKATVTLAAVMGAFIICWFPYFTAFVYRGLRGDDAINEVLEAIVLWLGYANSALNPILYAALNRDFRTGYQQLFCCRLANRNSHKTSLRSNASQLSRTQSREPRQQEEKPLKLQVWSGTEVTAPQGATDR

CC(C)(Sc1cc(C(C)(C)C)c(O)c(C(C)(C)C)c1)Sc1cc(C(C)(C)C)c(O)c(C(C)(C)C)c1 [PROBUCOL]
Not Active: all assays above

CO[C@@]1(NC(=O)CSCC#N)C(=O)N2C(C(=O)O)=C(CSc3nnnn3C)CS[C@@H]21 [CEFMETAZOLE]
Not Active: all assays above

CC(=O)O[C@]1(C(C)=O)CC[C@H]2[C@@H]3C=C(C)C4=CC(=O)CC[C@]4(C)[C@H]3CC[C@@]21C [MEGESTROL ACETATE]
Not Active: all assays above

COc1cc(CNC(=O)CCCC/C=C/C(C)C)ccc1O [CAPSAICIN]
Not Active: all assays above

CC(C)(C)c1ccc(S(=O)(=O)/C=C/C#N)cc1 [BAY-11-7085]
Not Active: all assays above

CC[C@H](C)C(=O)O[C@H]1C[C@@H](C)C=C2C=C[C@H](C)[C@H](CC[C@@H]3C[C@@H](O)CC(=O)O3)[C@H]21 [LOVASTATIN]
Not Active: all assays above

O=C(c1ccccc1Cl)N1CCC(Cc2ccccc2)CC1
Not Active: all assays above

CCOC(=O)[C@H](CCc1ccccc1)N[C@@H](C)C(=O)N1Cc2ccccc2C[C@H]1C(=O)O
Not Active: all assays above

CC[C@H]1OC(=O)[C@H](C)[C@@H](O[C@H]2C[C@@](C)(OC)[C@@H](O)[C@H](C)O2)[C@H](C)[C@@H](O[C@@H]2O[C@H](C)C[C@H](N(C)C)[C@H]2O)[C@](C)(O)C[C@@H](C)CN(C)[C@H](C)[C@@H](O)[C@]1(C)O [AZITHROMYCIN]
Not Active: all assays above

Cc1cccc(Nc2ccccc2C(=O)O)c1C [MEFENAMIC ACID]
Not Active: all assays above

COC(=O)c1ccccc1O [METHYL SALICYLATE]
Not Active: all assays above

CC[C@H](C)C(=O)O[C@H]1C[C@H](O)C=C2C=C[C@H](C)[C@H](CC[C@@H](O)C[C@@H](O)CC(=O)O)[C@H]21 [PRAVASTATIN]
Not Active: all assays above

N[C@@H](Cc1ccc(F)cc1)C(=O)O
Not Active: all assays above

C[C@]12C/C(=C/O)C(=O)C[C@@H]1CC[C@@H]1[C@@H]2CC[C@@]2(C)[C@H]1CC[C@]2(C)O [OXYMETHOLONE]
Not Active: all assays above

Clc1cc2c(cc1Cl)Oc1cc(Cl)c(Cl)cc1O2 [2,3,7,8-TETRACHLORODIBENZO-P-DIOXIN]
Not Active: all assays above

OCCO [ETHYLENE GLYCOL]
Not Active: all assays above

NC[C@H]1O[C@H](O[C@H]2[C@H](O)[C@@H](O[C@H]3O[C@H](CO)[C@@H](O)[C@H](N)[C@H]3O)[C@H](N)C[C@@H]2N)[C@H](O)[C@@H](O)[C@@H]1O [KANAMYCIN]
Not Active: all assays above

O=C(/C=C/c1ccc(O)c(O)c1)OCCc1ccccc1 [CAFFEIC ACID PHENETHYL ESTER]
Not Active: all assays above

NC[C@@H]1O[C@H](O[C@H]2[C@@H](O)[C@H](O[C@@H]3[C@@H](O)[C@H](N)C[C@H](N)[C@H]3O[C@H]3O[C@H](CN)[C@@H](O)[C@H](O)[C@H]3N)O[C@@H]2CO)[C@H](N)[C@@H](O)[C@@H]1O [FRAMYCETIN]
Not Active: all assays above

CCCCCC[C@H]1C(=O)O[C@H](C)[C@H](NC(=O)c2cccc(NC=O)c2O)C(=O)O[C@@H](C)[C@@H]1OC(=O)CC(C)C [ANTIMYCIN A]
Not Active: all assays above

Oc1ccccc1O [CATECHOL]
Not Active: all assays above

Cc1c(F)c(N2CCNC(C)C2)cc2c1c(=O)c(C(=O)O)cn2C1CC1 (stereo unspecified) [GREPAFLOXACIN]
Not Active: all assays above

[N-]=[N+]=CC(=O)OC[C@H](N)C(=O)O [AZASERINE]
Not Active: all assays above

C#C[C@]1(O)CC[C@H]2[C@@H]3CCC4=Cc5oncc5C[C@]4(C)[C@H]3CC[C@@]21C [DANAZOL]
Not Active: all assays above

CO[C@H]1[C@@H](O)[C@H](N)[C@@H](O[C@H]2O[C@H]([C@H](C)N)CC[C@H]2N)[C@H](O)[C@@H]1N(C)C(=O)CN [ASTROMICIN]
Not Active: all assays above

COc1ccc2cc(CCC(C)=O)ccc2c1 [NABUMETONE]
Not Active: all assays above

NC(=O)N1c2ccccc2C=Cc2ccccc21 [CARBAMAZEPINE]
Not Active: all assays above

Cc1c(N(C)CS(=O)(=O)[O-])c(=O)n(-c2ccccc2)n1C.[Na+] [DIPYRONE SODIUM]
Not Active: all assays above

OCCN1CCN(CCCN2c3ccccc3Sc3ccc(Cl)cc32)CC1 [PERPHENAZINE]
Not Active: all assays above

CC[C@]1(O)CC[C@H]2[C@@H]3CCC4=CCCC[C@@H]4[C@H]3CC[C@@]21C
Not Active: all assays above

CCOC(=O)n1ccn(C)c1=S [CARBIMAZOLE]
Not Active: all assays above

COc1ccc(Cc2nccc3cc(OC)c(OC)cc23)cc1OC [PAPAVERINE]
Not Active: all assays above

C#C[C@]1(O)CC[C@H]2[C@@H]3CCc4cc(O)ccc4[C@H]3CC[C@@]21C [ETHINYL ESTRADIOL]
Not Active: all assays above

C[C@H]([C@](O)(Cn1cncn1)c1ccc(F)cc1F)S(C)(=O)=O [GENACONAZOLE]
Not Active: all assays above
